The source made the active and inactive calls.
Tests used:
[1] = biological target: Melanocortin receptor 3 (Homo sapiens) (UniProt P41968); assay: Agonist activity at human MC3 receptor at 100 uM to 5 mM
[2] = biological target: Adrenocorticotropic hormone receptor (Mus musculus) (UniProt Q64326); assay: Agonist activity at mouse MC2 receptor at 100 uM to 5 mM
[3] = biological target: Melanocortin receptor 3 (Mus musculus) (UniProt P33033); assay: Agonist activity at mouse MC3 receptor at 100 uM to 5 mM
[4] = biological target: Melanocortin receptor 4 (Mus musculus) (UniProt P56450); assay: Agonist activity at mouse MC4 receptor at 100 uM to 5 mM
[5] = biological target: T1, 5-hydroxytryptamine receptor 2C (Homo sapiens) (UniProt P28335); assay: Agonist activity at human 5HT2C receptor at 100 uM to 5 mM
T1 sequence (whole entry): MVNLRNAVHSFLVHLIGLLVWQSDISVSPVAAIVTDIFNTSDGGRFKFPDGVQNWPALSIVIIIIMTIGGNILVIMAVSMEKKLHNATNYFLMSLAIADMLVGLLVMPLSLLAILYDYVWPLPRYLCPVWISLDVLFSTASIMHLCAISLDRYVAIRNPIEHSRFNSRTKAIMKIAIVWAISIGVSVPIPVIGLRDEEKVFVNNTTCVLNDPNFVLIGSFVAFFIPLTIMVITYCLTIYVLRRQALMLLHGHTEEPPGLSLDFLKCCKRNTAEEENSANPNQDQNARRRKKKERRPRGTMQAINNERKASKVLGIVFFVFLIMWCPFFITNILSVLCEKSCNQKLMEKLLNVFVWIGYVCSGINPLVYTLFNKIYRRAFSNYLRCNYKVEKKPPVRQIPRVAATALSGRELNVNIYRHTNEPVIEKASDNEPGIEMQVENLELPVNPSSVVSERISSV

[6] = biological target: T2, Orexin receptor type 2 (Homo sapiens) (UniProt O43614); assay: Agonist activity at human orexin 2 receptor at 100 uM to 5 mM
T2 sequence (whole entry): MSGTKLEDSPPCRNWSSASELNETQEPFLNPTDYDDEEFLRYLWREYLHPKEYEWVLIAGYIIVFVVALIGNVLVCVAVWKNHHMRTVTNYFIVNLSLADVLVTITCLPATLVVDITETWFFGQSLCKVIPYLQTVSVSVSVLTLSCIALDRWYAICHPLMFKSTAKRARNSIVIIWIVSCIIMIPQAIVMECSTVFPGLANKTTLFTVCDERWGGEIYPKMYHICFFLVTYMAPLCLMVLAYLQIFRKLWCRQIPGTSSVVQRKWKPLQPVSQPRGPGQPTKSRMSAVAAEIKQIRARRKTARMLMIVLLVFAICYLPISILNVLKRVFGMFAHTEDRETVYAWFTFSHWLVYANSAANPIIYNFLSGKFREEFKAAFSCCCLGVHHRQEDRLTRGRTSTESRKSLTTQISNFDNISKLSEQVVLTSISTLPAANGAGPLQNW

[7] = biological target: Melanin-concentrating hormone receptor 1 (Homo sapiens) (UniProt Q99705); assay: Agonist activity at human MCH1 receptor at 100 uM to 5 mM
[8] = biological target: D(1B) dopamine receptor (Homo sapiens) (UniProt P21918); assay: Agonist activity at human D5 receptor at 100 uM to 5 mM
[9] = biological target: Adenosine receptor A2a (Homo sapiens) (UniProt P29274); assay: Agonist activity at human A2a receptor at 100 uM to 5 mM
[10] = biological target: T3, Adenosine receptor A3 (Homo sapiens) (UniProt P0DMS8); assay: Agonist activity at human A3 receptor at 100 uM to 5 mM
T3 sequence (whole entry): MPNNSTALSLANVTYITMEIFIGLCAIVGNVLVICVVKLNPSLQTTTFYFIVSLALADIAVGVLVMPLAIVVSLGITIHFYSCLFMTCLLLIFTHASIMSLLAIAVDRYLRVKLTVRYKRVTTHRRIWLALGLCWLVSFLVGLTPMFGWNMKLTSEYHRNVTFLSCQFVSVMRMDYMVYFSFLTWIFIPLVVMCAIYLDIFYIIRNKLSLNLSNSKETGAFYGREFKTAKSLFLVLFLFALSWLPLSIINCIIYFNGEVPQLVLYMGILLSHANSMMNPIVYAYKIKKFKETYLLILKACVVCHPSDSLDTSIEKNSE

[11] = biological target: T4, Neuropeptide Y receptor type 5 (Homo sapiens) (UniProt Q15761); assay: Agonist activity at human NPY5 receptor at 100 uM to 5 mM
T4 sequence (whole entry): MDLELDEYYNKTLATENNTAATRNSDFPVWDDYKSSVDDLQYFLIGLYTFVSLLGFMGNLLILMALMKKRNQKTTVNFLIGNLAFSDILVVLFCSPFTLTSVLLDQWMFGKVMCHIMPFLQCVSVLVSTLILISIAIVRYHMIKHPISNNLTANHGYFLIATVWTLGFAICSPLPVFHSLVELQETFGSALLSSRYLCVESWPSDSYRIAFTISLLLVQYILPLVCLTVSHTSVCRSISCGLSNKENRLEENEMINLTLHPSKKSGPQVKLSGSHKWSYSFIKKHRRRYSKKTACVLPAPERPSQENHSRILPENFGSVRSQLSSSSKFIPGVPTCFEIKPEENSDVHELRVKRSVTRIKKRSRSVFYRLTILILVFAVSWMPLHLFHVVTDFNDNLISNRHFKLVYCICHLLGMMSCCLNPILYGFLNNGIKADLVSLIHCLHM

[12] = biological target: Glucagon receptor (Homo sapiens) (UniProt P47871); assay: Agonist activity at human Glu receptor at 100 uM to 5 mM

Measured: Activity

Sequence of Adrenocorticotropic hormone receptor (Mus musculus) (Q64326 whole entry): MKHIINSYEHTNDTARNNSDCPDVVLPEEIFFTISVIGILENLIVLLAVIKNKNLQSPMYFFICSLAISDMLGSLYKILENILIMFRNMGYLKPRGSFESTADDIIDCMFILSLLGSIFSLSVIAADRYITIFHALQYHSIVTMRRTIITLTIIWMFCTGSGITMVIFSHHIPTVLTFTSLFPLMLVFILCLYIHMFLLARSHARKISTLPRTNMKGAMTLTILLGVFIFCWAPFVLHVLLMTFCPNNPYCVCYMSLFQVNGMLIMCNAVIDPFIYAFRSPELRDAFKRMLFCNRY
Sequence of Melanin-concentrating hormone receptor 1 (Homo sapiens) (Q99705 whole entry): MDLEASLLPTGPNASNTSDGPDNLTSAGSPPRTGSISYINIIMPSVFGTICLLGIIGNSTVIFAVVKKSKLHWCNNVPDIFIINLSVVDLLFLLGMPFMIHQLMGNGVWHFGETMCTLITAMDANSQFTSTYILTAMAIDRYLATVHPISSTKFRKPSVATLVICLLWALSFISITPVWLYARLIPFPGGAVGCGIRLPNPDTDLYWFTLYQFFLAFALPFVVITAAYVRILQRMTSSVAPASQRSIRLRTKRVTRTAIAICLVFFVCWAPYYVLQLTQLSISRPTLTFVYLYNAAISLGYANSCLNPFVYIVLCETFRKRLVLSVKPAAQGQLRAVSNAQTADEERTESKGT
Sequence of D(1B) dopamine receptor (Homo sapiens) (P21918 whole entry): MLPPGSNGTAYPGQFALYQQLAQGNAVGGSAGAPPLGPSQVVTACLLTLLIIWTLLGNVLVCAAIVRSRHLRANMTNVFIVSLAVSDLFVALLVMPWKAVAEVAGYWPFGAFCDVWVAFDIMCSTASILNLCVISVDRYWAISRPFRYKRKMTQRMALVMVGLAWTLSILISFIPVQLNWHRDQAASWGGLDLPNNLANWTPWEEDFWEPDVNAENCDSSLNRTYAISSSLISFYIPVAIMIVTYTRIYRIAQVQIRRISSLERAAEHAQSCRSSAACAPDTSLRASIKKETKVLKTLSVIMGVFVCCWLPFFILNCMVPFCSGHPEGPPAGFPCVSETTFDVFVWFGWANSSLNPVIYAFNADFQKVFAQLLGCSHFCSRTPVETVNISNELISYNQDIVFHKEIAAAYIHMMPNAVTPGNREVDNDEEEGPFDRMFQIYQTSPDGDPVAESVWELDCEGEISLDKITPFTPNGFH
Sequence of Glucagon receptor (Homo sapiens) (P47871 whole entry): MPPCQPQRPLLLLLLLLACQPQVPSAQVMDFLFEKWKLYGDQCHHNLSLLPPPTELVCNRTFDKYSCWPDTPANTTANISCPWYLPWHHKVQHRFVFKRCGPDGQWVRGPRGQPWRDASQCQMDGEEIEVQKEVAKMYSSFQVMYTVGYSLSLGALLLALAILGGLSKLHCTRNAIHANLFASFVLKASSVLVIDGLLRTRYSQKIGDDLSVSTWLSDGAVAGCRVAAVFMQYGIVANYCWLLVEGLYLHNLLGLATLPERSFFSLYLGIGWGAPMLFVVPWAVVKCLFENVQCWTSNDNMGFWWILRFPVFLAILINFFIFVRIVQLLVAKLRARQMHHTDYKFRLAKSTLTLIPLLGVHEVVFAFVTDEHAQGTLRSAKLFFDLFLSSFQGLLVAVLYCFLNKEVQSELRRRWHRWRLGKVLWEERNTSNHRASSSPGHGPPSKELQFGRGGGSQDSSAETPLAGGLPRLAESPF
Sequence of Melanocortin receptor 4 (Mus musculus) (P56450 whole entry): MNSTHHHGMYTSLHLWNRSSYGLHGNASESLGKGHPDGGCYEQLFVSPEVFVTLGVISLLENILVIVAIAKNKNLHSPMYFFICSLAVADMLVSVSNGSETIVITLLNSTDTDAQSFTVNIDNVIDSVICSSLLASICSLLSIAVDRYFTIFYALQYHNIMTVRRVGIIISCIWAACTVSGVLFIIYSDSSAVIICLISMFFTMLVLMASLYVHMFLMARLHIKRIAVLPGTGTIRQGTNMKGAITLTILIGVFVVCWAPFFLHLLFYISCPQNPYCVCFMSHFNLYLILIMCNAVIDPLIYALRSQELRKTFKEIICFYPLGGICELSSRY
Sequence of Adenosine receptor A2a (Homo sapiens) (P29274 whole entry): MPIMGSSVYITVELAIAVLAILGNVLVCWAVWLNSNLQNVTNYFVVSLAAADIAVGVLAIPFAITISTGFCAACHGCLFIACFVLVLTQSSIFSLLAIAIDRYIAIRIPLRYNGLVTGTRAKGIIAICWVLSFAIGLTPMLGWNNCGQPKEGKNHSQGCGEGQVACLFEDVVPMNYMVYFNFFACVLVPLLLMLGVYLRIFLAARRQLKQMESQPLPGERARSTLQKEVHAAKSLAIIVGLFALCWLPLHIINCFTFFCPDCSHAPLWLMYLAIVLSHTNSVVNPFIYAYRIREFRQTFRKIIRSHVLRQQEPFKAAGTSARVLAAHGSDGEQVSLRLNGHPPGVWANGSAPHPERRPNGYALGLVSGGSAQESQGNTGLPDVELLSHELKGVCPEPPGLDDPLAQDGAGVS
Sequence of Melanocortin receptor 3 (Homo sapiens) (P41968 whole entry): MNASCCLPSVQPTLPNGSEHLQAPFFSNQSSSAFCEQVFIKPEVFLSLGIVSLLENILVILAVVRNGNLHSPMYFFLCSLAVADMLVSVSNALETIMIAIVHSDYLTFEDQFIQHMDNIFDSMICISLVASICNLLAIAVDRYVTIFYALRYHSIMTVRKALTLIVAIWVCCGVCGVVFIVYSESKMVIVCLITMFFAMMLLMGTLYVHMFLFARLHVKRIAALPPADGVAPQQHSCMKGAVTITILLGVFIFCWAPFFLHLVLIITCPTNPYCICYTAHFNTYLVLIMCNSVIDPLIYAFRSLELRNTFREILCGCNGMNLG
Sequence of Melanocortin receptor 3 (Mus musculus) (P33033 whole entry): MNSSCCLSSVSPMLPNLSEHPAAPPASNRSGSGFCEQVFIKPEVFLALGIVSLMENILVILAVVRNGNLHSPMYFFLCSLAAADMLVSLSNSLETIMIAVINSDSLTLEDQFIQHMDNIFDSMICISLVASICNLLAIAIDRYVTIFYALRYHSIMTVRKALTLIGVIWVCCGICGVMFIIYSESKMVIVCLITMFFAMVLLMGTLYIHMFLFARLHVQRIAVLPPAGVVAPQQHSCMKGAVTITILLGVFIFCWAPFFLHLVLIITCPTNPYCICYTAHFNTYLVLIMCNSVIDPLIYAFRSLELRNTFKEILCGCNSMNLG

O=c1cc(-c2ccc(O)cc2)oc2ccccc12
inactive: [1] | [2] | [3] | [4] | [5] | [6] | [7] | [8] | [9] | [10] | [11] | [12]

O=c1c(O)c(-c2ccc(Cl)cc2Cl)oc2ccccc12
inactive: [1] | [2] | [3] | [4] | [5] | [6] | [7] | [8] | [9] | [10] | [11] | [12]

COc1cc(-c2cc(=O)c3ccccc3o2)ccc1O
inactive: [1] | [2] | [3] | [4] | [5] | [6] | [7] | [8] | [9] | [10] | [11] | [12]

O=c1c(O)c(-c2ccc(O)c(O)c2)oc2ccccc12
inactive: [1] | [2] | [3] | [4] | [5] | [6] | [7] | [8] | [9] | [10] | [11] | [12]

CN(C)c1ccc(-c2oc3ccccc3c(=O)c2O)cc1
inactive: [1] | [2] | [3] | [4] | [5] | [6] | [7] | [8] | [9] | [10] | [11] | [12]

O=c1c(O)c(-c2ccccc2F)oc2ccccc12
inactive: [1] | [2] | [3] | [4] | [5] | [6] | [7] | [8] | [9] | [10] | [11] | [12]

Fc1ccccc1C1C=Cc2ccccc2O1 (racemic)
inactive: [1] | [2] | [3] | [4] | [5] | [6] | [7] | [8] | [9] | [10] | [11] | [12]

O=c1c(O)c(-c2c(F)cccc2Cl)oc2ccccc12
inactive: [1] | [2] | [3] | [4] | [5] | [6] | [7] | [8] | [9] | [10] | [11] | [12]
